From patent US9828344B2, “Inhibitors of the notch signaling pathway and secretion for use in medicine” (Leibniz-Institut für Altersforschung Fritz-Lipmann-Institut …, priority 2012, dated 2017)

Columns and labels:
[1] = molecular target: T1, GBF1 (Homo sapiens, UniProt Q92538); assay: GBF1-GFP distribution in transfected HeLa cells; format: cell-based; conditions: FLI-06 10 μM, BFA 10 μg/ml, GCA 10 μM, 10 h
T1 construct: expressed in transfected cells; host or cells: HeLa (transient)

[2] = system: ER; assay: ER tubule-to-sheet live-cell imaging in COS cells (prlss-KDEL-mRFP); format: cell-based
Description: FIG. 7: FLI-06 induces ER sheet formation. A) COS cells transfected with prlss-KDEL-mRFP were incubated with 10 μM FLI-06 for indicated times and imaged by live-cell microscopy. The inserts are magnifications of the boxed areas. B) Images from cells treated as in A) were scored for the percentage of cells that lost most of their ER-tubules. For each time point 40-60 cells were counted. Data represent mean percentages, error bars SEM, n=3 independent experiments.
FIG. 16: Only ER exit inhibitors convert ER tubules to sheets. COS cells plated on LabTek chambered coverslips were transiently transfected with the ER-marker prlss-KDEL-mRFP, incubated the next day for 2 h with 10 iM of indicated compounds and imaged by live-cell microscopy. […] FLI-06+CHX, cells were additionally incubated in 40 iM cycloheximide. Nife, nifedipine; nimo, nimodipine. Numbers refer to numbering in FIG. 5a.
We noted a morphological change of the ER upon FLI-06 incubation that was difficult to capture in fixed cells. Live-cell imaging was therefore performed in COS cells transfected with the ER marker prlss-KDEL-mRFP (supp. Ref 3) and FLI-06 was added for 120 min (FIG. 7a). After 120 min almost all cells had no detectable ER-tubules anymore and instead were filled with large sheet-like structures. […] To test whether the morphological change is related to the inhibition of ER exit, next our set of FLI-06 derivatives was tested. […] Rather, the ER-sheets are indicative for structural changes, maybe initiated within ERES, that inhibit ER exit.

[3] = system: COPII vesicles; assay: In vitro COPII budding assay with permeabilized cells; format: biochemical; conditions: for budding of COPII vesicles after pretreatment of cells: cells pretreated with FLI-06 for 4 hours
[4] = system: NotchΔE-EGFP; assay: cells; format: cell-based
Description: To identify novel regulatory factors involved in Notch trafficking/processing an image-based high content screen was set up. […] NotchΔE-EGFP is a direct substrate for γ-secretase at the PM, and under physiological conditions is proteolytically processed to NICD-EGFP that translocates into the nucleus (for scheme see FIG. 1b), resulting in a strong nuclear EGFP-staining in steady state^15 (FIG. 1d). […] Importantly, changes in subcellular localization of the reporter are amenable to quantitation by automated microscopy^15. Accordingly, reporter fluorescence was determined in the nucleus (nuc) and in a ring around the nucleus (enuc), and the ratio enuc/nuc was evaluated (schematized in FIG. 1c). Thereafter, the assay design was functionally validated. […] The assay also reliably detected trafficking defects in the secretory pathway. […] Taken together, the assay was validated for reliably detecting concentration and time dependent changes in trafficking and processing of the Notch reporter.
Cells were seeded in 96-well plates at a density of 5000 cells/well in 100 μl medium. The next day, 100 μl medium containing the respective test compounds was added. Cells were incubated for 16 h, fixed and processed for automated microscopy. For the putative gamma-secretase inhibitors the enuc intensity was divided by the DAPT control and for the trafficking inhibitors normalized percentage inhibition against DAPT/DMSO controls of log 2 transformed nuc/enuc ratios were calculated. Relative activity values were read into “R” (http://www.r-project.org/) and EC50 estimates were calculated using four-parameter log-logistic fit with the package “drc”^51.
Images were acquired on an ArrayScan VTi automated microscope (ThermoFisher) and numerical data were extracted with the Compartmental Analysis BioApplication of the bundled software suite. Compound screening raw data were collected at the FMP and data transformation was performed according to standard procedures (ref 17 and supp. Refs 6-7).

[5] = system: Klotho; assay: Klotho trafficking/processing in HEK293 cells stably expressing Klotho; format: cell-based; conditions: 10 μM, 16 h
Description: FIG. 3: Effect of compounds on NotchΔE-EGFP, APP and Klotho trafficking and processing. a) HEK293 stably expressing APPswe or Klotho (KI) were incubated with DAPT or compounds (10 μM) for 16 h. Media were collected, cells lysed and both assayed by Western blotting using indicated antibodies. m, mature; im, immature; s, shedded ectodomain; CTF, C-terminal fragment. b) Membranes from HeLa-NotchΔE-EGFP and APPswe cells were isolated and subjected to a γ-secretase in vitro assay in the presence of DAPT or compounds as indicated. NICD and AICD were detected by Western Blotting using antibodies against the C-terminus of APP (top) or antibodies specific for NICD (bottom). c) Quantitation from 5 independent experiments.
To test whether FLI-06 affected other membrane proteins, Klotho, a type I protein processed like APP and Notch^20, was analyzed. […] To analyze γ-secretase activity, in vitro assays using isolated membranes were performed (FIG. 3b, c). Production of NICD-EGFP and AICD (APP intracellular domain) were assayed. Both were produced in vitro at 37° C. but not at 4° C., and their production was inhibited by DAPT.
APP, APPs, APPCTF and Aβ detection was as described before^54 using antibodies 22C11 for APP and APPs, 6687 for APPCTF and 3552 and 2D8 for Aβ. Klotho was detected as described in Bloch et al.^20. Chemoluminescence was quantified on a LAS-4000 (Fuji) with MultiGauge software.

[6] = system: BIP and ATF6; conditions: human, 24 h
[7] = system: DND-41 cells; assay: Growth of DND-41 cells (FACS); format: cell-based
Description: FIG. 18: FLI-06 inhibits secretion of secreted alkaline phosphates; FLI-06 kills cancerous, Notch dependent T-cells. a) The secreted alkaline phosphatase (SEAP) assay was carried out. Medium was collected and SEAP secretion was measured via photometry. […] The cells were grown in suspension with the indicated amounts of FLI-06 or DMSO control and growth was determined via FACS analysis.
To test whether FLI-06 would ultimately be useful to treat cancerous diseases we incubated DND-41 cells having a Notch heterodimerization domain that leads to hyperactive Notch signaling (Weng et al, Science, 2004) with FLI-06.

[8] = system: VSVG-EGFP; format: cell-based
[9] = system: KlothoS; assay: Secretion of KlothoS from transfected HeLa cells; format: cell-based; conditions: 18 h
Description: Thereafter cells were fixed and analyzed by immunofluorescence microscopy. […] After incubating with compounds for 18 h media were collected, cells lysed and both analyzed by Western Blotting using Klotho antibody. As loading control membranes were probed for actin. […] […] Tunicamycin (Tun) and 5 mM DTT were used as positive controls. […] Shown is the average of three independent experiments, error bars indicate standard deviation.

T1 sequence (Q92538 whole entry, species assumed): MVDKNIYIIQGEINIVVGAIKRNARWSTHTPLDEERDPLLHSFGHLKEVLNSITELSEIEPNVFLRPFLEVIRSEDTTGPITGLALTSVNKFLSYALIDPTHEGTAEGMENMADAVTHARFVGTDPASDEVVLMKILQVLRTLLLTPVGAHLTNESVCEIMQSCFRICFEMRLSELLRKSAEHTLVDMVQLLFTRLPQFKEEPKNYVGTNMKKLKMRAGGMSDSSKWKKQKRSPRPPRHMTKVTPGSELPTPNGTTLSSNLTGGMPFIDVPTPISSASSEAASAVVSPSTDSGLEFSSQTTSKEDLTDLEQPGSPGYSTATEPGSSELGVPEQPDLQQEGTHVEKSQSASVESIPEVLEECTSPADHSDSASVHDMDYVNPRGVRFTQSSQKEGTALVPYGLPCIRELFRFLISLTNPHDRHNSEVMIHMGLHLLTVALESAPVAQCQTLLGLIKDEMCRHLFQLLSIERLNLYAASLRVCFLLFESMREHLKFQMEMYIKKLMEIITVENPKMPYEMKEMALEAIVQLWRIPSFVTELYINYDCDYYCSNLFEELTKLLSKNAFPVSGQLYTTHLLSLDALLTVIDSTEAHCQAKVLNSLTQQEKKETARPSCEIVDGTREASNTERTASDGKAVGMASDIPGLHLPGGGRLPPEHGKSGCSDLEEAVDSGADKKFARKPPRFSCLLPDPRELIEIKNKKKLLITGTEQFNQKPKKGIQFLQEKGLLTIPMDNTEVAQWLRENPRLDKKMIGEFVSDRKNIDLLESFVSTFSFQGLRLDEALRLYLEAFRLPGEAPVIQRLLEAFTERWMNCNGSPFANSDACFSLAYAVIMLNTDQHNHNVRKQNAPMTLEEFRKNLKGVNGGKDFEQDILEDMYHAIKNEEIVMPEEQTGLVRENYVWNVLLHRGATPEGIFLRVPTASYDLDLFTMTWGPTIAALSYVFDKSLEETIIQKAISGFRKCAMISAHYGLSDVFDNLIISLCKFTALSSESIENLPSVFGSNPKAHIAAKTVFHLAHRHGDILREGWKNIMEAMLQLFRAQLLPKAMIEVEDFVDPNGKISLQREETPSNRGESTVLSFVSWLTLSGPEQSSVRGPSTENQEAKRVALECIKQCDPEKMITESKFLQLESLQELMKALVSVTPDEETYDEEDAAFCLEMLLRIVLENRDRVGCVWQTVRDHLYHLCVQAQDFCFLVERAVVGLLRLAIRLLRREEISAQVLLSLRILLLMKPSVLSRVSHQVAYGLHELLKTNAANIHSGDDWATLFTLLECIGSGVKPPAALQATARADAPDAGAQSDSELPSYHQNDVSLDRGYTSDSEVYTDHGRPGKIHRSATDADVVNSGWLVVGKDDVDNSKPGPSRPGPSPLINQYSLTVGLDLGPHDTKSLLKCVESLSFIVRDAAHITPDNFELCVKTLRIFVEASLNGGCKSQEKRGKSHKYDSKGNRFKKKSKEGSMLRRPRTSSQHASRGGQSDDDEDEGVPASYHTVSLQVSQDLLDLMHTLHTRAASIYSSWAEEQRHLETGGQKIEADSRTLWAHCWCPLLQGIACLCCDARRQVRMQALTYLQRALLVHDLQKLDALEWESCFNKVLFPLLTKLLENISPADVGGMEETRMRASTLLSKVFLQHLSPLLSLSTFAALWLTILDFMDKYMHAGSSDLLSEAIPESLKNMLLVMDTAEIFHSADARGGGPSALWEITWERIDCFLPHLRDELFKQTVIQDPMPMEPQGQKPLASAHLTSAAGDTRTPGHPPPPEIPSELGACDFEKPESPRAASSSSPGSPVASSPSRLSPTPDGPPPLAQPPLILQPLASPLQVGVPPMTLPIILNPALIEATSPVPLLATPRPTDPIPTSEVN

In the case of `CC1=C(C(=O)OC2CCCCC2)C(c2ccc([N+](=O)[O-])cc2)C2=C(CC(C)(C)CC2=O)N1` (stereo not drawn) [FLI-06, Cyclohexyl 4-(4′-nitrophenyl)-2,7,7-trimethyl-5-oxo-1,4,5,6,7,8-hexahydroquinoline-3-carboxylate], the “distribution of GBF1-GFP” value [1] is reported as “displayed the distribution of control cells”, the “start of ER sheet-formation” value ([2]; 10 μM FLI-06) is reported as 5 to 10 min and the “t1/2 of ER sheet-formation” value ([2]; 10 μM FLI-06) is reported as “about 14 min”. The ER tubule-to-sheets phenotype ([2]; 10 iM, 2 h) was “elicited the tubule-to-sheets phenotype”, the “budding of COPII vesicles after pretreatment of cells” value ([3]; 100 μM FLI-06 in reaction) was “strongly” and the “budding of COPII vesicles after pretreatment of cells” value ([3]; no FLI-06 in reaction) was “slightly inhibited”. For the same molecule, the “COPII budding reaction, compound added directly to the assay” value ([3]; no FLI-06 pretreatment of cells) was “did not inhibit the COPII budding reaction”, the “activity in NotchΔE-EGFP cells (enuc/nuc ratios)” value ([4]; SAR and prior-art comparison, FIG. 5a/5b) was “equally active as the initial screening hit” and the EC50 ([4]; assay not given, read-out: EC50 as secretion inhibitor) was 2300 nM. The “glycosylation of Klotho” value [5] was “aberrant glycosylation”, the “mature, complex-glycosylated post-Golgi form of Klotho” value [5] was “strongly reduced” and the “shedded Klothos in the medium” value [5] was “strong reduction of Klothos in the medium”. For the same molecule, the “ER-stress (BIP up-regulation, ATF6 luciferase)” value [6] was “only very mild ER-stress after 24 h”, the “effect on DND-41 cells” value ([7]; 1 μM) was “inhibited proliferation” and the “effect on DND-41 cells” value ([7]; 10 μM) was “total cell death after 4 days”. For the same molecule, the “recruitment of VSVG-EGFP to ERES” value [8] was “strongly reduced”, the “velocity of action on ER export” value [8] was “acts instantaneously on ER export” and the “secretion of KlothoS” value [9] was “inhibit secretion of KlothoS”.
